Assay results as given in patent US20230338391A1, “TREATMENT FOR DEPRESSION” (TAKEDA PHARMACEUTICAL COMPANY LIMITED, priority 2020, published 2023).

Experiments:
[1] = 13-week NHP GLP toxicity study: toxicokinetics; type: in vivo, Monkey (Macaca fascicularis); details: cynomolgus monkey, plasma, oral; range across all TK sampling days (1st, 29th, 90th dosing)
Protocol: Blood samples (a target of 0.5 mL each, Na-heparin tubes) were collected from all animals at the following timepoints: • Phase 1: at 4 hours after dosing. • Phase 2: Plasma concentrations of COMPOUND A and its metabolites were determined for all dose groups after the 1st, the 29th dosing and the 90th dosing. Blood collection occurred in each animal in all groups before dosing (at the 29th and 90th dose only) and 1, 2, 4, 8, and 24 hours after dosing. Blood samples were collected into Na-heparin tubes via the implanted catheter or from the jugular, cephalic or femoral vein by venipuncture; tubes were kept on wet ice pending centrifugation. The blood samples were centrifuged at 5400×g for 5 minutes under cooling conditions (set to 4° C.) to obtain the plasma. The plasma was divided into duplicate samples (at least 100 μL each) and was kept on dry ice and stored in a freezer set to −20° C. until shipment. Back-up samples (set 2 of 2) were stored separately from set 1 of 2.
Non-compartmental toxicokinetic analysis was performed by the subcontractor on the plasma concentration data for COMPOUND A, and its metabolites using validated WinNonlin software. The TK parameters (tmax, Cmax, t1/2, MRT24, MRTinf, AUC24 and AUCinf) were calculated for all animals except for the control animals.

[2] = Population PK modeling and simulation; set-up: species or system human
Protocol: Data processing and graphical visualization was performed using Matlab (version R2019a; The MathWorks, Inc., Natick, Massachusetts, United States).
The Stochastic Approximation of Expectation Maximization (SAEM) algorithm, a stochastic algorithm for calculating the maximum likelihood estimator, was selected as model-estimation method for its ability to accurately estimate population parameters.
Model building and selection was based on the following criteria/procedures: • Evaluation of individual and population parameter estimates and their precision (precision was quantified using the percentage of relative standard error (% RSE)); • Graphical examination of diagnostic and goodness-of-fit plots; • Analysis of correlation matrix of the estimates and condition number; • Reduction in both residual variability and inter-individual variability; and • Reduction in log likelihood (−2LL), Akaike Information Criterion (AIC) and Bayesian Information Criterion (BIC) for all nested models.
The base model was built by using these criteria to compare different structural models (e.g., one-compartment, two-compartment, three-compartment) with different absorption (e.g., zero order, first order) and elimination (e.g., linear, nonlinear) processes. Development of the base model was performed by adding inter-individual variability (IIV) on one structural parameter at a time and applying the set criteria to select the best model. IIV was generally modeled as an exponential term as follows:
A covariate model was then built to further reduce the unexplained inter-individual variability. Development of the covariate model was performed using the forward selection and backward elimination method. In the forward selection step, covariates were tested one at the time. […] In the backward elimination step, covariates were eliminated one at the time and changes in −2LL recorded.
The final model was evaluated using a visual predictive check, a simulation-based method to visually assess concordance of the model-based simulations and observed data. Bootstrap analysis was also performed to determine the precision of the parameter estimates, estimate confidence interval of identified parameters and assess the stability of the model. […]

MEPs = experiment: Nonclinical MEP amplitude in rats; type: in vivo; details: nonclinical data
healthy subjects = experiment: TMS crossover study: safety and tolerability; details: single doses 0.5 mg and 6 mg oral tablets
[3] = final POPPK model, inter-individual variability
[4] = final POPPK model, residual error

**Q.** With `CC1=CN2CCS(=O)(=O)N=C2C(c2ccc(OC3CCCCC3)cc2)=N1` [COMPOUND A, 9-[4-(Cyclohexyloxy)phenyl]-7-methyl-3,4-dihydropyrazino[2,1-c][1,2,4]thiadiazine 2,2-dioxide] as the compound, how does the Tmax [1] read?
**A.** Its Tmax is 2 to 15 h.

**Q.** And the “Additive Error, median bootstrap parameter estimate” value ([2]; bootstrap analysis)?
**A.** Its value is 0.34 SD.

**Q.** What about the “CL/F_IIV, median bootstrap parameter estimate” value ([2]; bootstrap analysis) of the same compound?
**A.** Its value is 61.97 % CV.

**Q.** What about the “KA IIV, median bootstrap parameter estimate” value ([2]; bootstrap analysis) of the same compound?
**A.** Its value is 97.18 % CV.

**Q.** And the “Proportional Error, median bootstrap parameter estimate” value ([2]; bootstrap analysis)?
**A.** Its value is 37.72 % CV.

**Q.** And the “TLag IIV, median bootstrap parameter estimate” value ([2]; bootstrap analysis)?
**A.** Its value is 67.78 % CV.

**Q.** What about the “V/F_IIV, median bootstrap parameter estimate” value ([2]; bootstrap analysis) of the same compound?
**A.** The value was 33.27 % CV.

**Q.** What about the “CL/F_IIV, population parameter estimate” value [2, 3] of the same compound?
**A.** Its value is 62.53 % CV.

**Q.** What about the “KA IIV, population parameter estimate” value [2, 3] of the same compound?
**A.** Its value is 98.99 % CV.

**Q.** What about the “TLag IIV, population parameter estimate” value [2, 3] of the same compound?
**A.** The value was 69.17 % CV.

**Q.** And the “V/F_IIV, population parameter estimate” value [2, 3]?
**A.** Its value is 33.77 % CV.

**Q.** What about the “Additive Error, population parameter estimate” value [2, 4] of the same compound?
**A.** Its value is 0.35 SD.

**Q.** What about the “Proportional Error, population parameter estimate” value [2, 4] of the same compound?
**A.** Its value is 37.56 % CV.

**Q.** What about the “amplitude of MEPs” value (MEPs) of the same compound?
**A.** Its value is “increases the amplitude of MEPs in rats”.

**Q.** And the “deaths or SAEs” value (healthy subjects)?
**A.** The value was “No deaths or SAEs were reported”.
